From patent publication US8440674B2, “Substituted pyrimidine compounds as RAF inhibitors and methods of use” (Amgen Inc., priority 2005, dated 2013)
Like-named read-outs stand apart in the source and are kept apart here.

Assays:
[1] = target: recombinant HuBraf V600E (Homo sapiens, UniProt P15056, V600E); test: B-raf Homogenous Time Resolved Fluorescent (HTRF) kinase assay; type: biochemical; settings: substrate MEK1, 10 uM ATP; threshold lists; read-out: IC50 for the inhibition of B-raf as measured by the HTRF assay
recombinant HuBraf V600E, sequence (P15056 whole entry V600E): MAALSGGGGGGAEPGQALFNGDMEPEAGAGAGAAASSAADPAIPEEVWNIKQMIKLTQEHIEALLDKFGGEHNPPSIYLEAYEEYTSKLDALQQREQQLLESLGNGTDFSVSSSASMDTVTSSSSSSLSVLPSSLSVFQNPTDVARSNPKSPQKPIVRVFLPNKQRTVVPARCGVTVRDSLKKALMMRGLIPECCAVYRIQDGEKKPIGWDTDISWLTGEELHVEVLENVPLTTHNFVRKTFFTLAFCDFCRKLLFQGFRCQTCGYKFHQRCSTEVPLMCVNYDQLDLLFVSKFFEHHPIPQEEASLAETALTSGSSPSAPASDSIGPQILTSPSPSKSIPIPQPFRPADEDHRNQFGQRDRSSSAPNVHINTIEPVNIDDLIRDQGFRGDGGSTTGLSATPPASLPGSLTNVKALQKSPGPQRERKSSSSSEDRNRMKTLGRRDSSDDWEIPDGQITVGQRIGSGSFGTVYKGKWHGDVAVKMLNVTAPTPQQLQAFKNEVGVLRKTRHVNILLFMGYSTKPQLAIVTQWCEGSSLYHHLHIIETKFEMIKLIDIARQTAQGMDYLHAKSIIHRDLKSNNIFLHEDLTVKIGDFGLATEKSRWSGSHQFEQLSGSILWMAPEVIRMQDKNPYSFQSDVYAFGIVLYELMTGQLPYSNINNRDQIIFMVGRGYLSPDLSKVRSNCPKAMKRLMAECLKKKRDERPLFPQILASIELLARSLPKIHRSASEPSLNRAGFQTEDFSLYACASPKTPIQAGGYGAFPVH
Description: A Homogeneous Time Resolved Fluorescence (HTRF) kinase assay was established to assay the ability of compounds to inhibit human mutant Braf kinase activity on the substrate MEK1. […] The final concentration of the kinase reaction buffer is 50 mM Tris-HCL pH 7.5, 10 mM MgCl2, 0.5% glucose, 0.5 mM DTT, 0.01% BSA.
The detection reaction proceeds for one hour and is read on a RubyStar (BMG Labtech) counter. IC50s for the test compounds are generated using Excel-XLfit software.

[2] = test system: A375 cells, a human melanoma cell line having the V600E mutant Braf; test: B-Raf cell-based assay (ratio of phospho-ERK1/2 to total ERK1/2); settings: A-375, 1 h, P-ERK/total ERK, 60 minute incubation, read-out: IC50 for the inhibition of B-raf as measured by the cell-based assay
Description: A cell-based assay was optimized to assay the ability of compounds to inhibit Braf activity in a whole cell context. […] The cell-based assay quantifies the ratio of phospho-ERK1/2 to total ERK1/2 and can thereby assay the cellular inhibition of Braf kinase activity.
A375 cells are plated into 96 well plates and grown to confluence. The cells are then changed into starve media (DMEM/0.1% BSA) for 60 minutes. Compounds in DMSO dose curves are then diluted in starve media and added to cells. […] After a 60 minute incubation the cells are fixed for 20 minutes at room temperature in 4% formaldehyde with 0.1%Triton X-100, protease and phosphatase inhibitors in PBS. The cells are washed four times in PBS then blocked for 60 minutes using a one to one mix of Odyssey blocking buffer (Li-Cor Biosciences, Inc) and PBS. Primary antibodies (rabbit anti-phospho p42/p44 MAPK (P-ERK1/2) from Cell Signaling Technology and mouse anti-ERK2 from Santa Cruz Biotechnology) are diluted in blocking buffer, added to the cells and incubated overnight at 4° C. The cells are then washed four times in PBS/0.1% Tween-20. Secondary antibodies (anti-mouse IRDye 800CW from Rockland, Inc and anti-rabbit AlexaFlour680 from Molecular Probes) are diluted in blocking buffer/0.5% Tween and incubated on cells for 60 minutes. After 4 washes in PBS/0.1% Tween-20 the microplate is scanned on an Odyssey Infrared Imager (Li-Cor Bioscience) which can read the signal given by the two secondary antibodies on their respective channels. The ratio of P-ERK/total ERK is determined and IC50s generated using Excel-XLfit software.

Structure (SMILES) | IC50 [1] [nM] | IC50 ([2]; threshold list) [nM] | IC50 ([2]; threshold lists) [nM]
Cc1ccc2c(Nc3cccc(C(F)(F)F)c3)nccc2c1Nc1ncccc1-c1ccncn1 [Example 7, 6-methyl-N^5-(3-(4-pyrimidinyl)-2-pyridinyl)-N^1-(3-(trifluoromethyl)phenyl)-1,5-isoquinolinediamine] | ≤ 250 | ≤ 500 | –
COc1cc(Nc2nccc3c(Nc4ncccc4-c4ccncn4)cccc23)cc(C(F)(F)F)c1 [Example 8, N^1-(3-(methyloxy)-5-(trifluoromethyl)phenyl)-N^5-(3-(4-pyrimidinyl)-2-pyridinyl)-1,5-isoquinolinediamine] | ≤ 250 | ≤ 500 | –
Cc1ccc2c(Nc3ccccc3)nccc2c1Nc1ncccc1-c1ccncn1 [Example 9, 6-methyl-N^1-phenyl-N^5-(3-(4-pyrimidinyl)-2-pyridinyl)-1,5-isoquinolinediamine] | ≤ 250 | ≤ 500 | –
Cc1ccc2c(Nc3cccc(C(C)(C)C)c3)nccc2c1Nc1ncccc1-c1ccncn1 [Example 10, N^1-(3-(1,1-dimethylethyl)phenyl)-6-methyl-N^5-(3-(4-pyrimidinyl)-2-pyridinyl)-1,5-isoquinolinediamine] | ≤ 250 | ≤ 500 | –
Cc1ccc2c(Nc3cccc(N(C)C)c3)nccc2c1Nc1ncccc1-c1ccncn1 [Example 11, N^1-(3-(dimethylamino)phenyl)-6-methyl-N^5-(3-(4-pyrimidinyl)-2-pyridinyl)-1,5-isoquinolinediamine] | ≤ 250 | ≤ 500 | –
Cc1ccc2c(Nc3cccc(C(C)C)c3)nccc2c1Nc1ncccc1-c1ccncn1 [Example 12, 6-methyl-N^1-(3-(1-methylethyl)phenyl)-N^5-(3-(4-pyrimidinyl)-2-pyridinyl)-1,5-isoquinolinediamine] | ≤ 250 | ≤ 500 | –
Cc1ccc2c(Nc3cccc(OC(C)C)c3)nccc2c1Nc1ncccc1-c1ccncn1 [Example 13, 6-methyl-N^1-(3-((1-methylethyl)oxy)phenyl)-N^5-(3-(4-pyrimidinyl)-2-pyridinyl)-1,5-isoquinolinediamine] | ≤ 250 | ≤ 500 | –
Cc1ccc2c(Nc3cccc(Cl)c3)nccc2c1Nc1ncccc1-c1ccncn1 [Example 14, N^1-(3-chlorophenyl)-6-methyl-N^5-(3-(4-pyrimidinyl)-2-pyridinyl)-1,5-isoquinolinediamine] | ≤ 250 | ≤ 500 | –
Cc1ccc2c(Nc3cc(C(C)(C)C)nn3C)nccc2c1Nc1ncccc1-c1ccncn1 [Example 15, N^1-(3-(1,1-dimethylethyl)-1-methyl-1H-pyrazol-5-yl)-6-methyl-N^5-(3-(4-pyrimidinyl)-2-pyridinyl)-1,5-isoquinolinediamine] | ≤ 250 | ≤ 500 | –
Cc1ccc2c(Nc3ccc(C(C)(C)C)cc3)nccc2c1Nc1ncccc1-c1ccncn1 [Example 16, N^1-(4-(1,1-dimethylethyl)phenyl)-6-methyl-N^5-(3-(4-pyrimidinyl)-2-pyridinyl)-1,5-isoquinolinediamine] | ≤ 250 | ≤ 500 | –
CNc1nccc2c(Nc3ncccc3-c3ccncn3)c(C)ccc12 [Example 17, N^1-6-dimethyl-N^5-(3-(4-pyrimidinyl)-2-pyridinyl)-1,5-isoquinolinediamine] | ≤ 250 | ≤ 500 | –
Cc1ccc2c(Nc3cccc(OC(F)(F)F)c3)nccc2c1Nc1ncccc1-c1ccncn1 [Example 18, 6-methyl-N^5-(3-(4-pyrimidinyl)-2-pyridinyl)-N^1-(3-((trifluoromethyl)oxy)phenyl)-1,5-isoquinolinediamine] | ≤ 250 | ≤ 500 | –
COc1ccc(Nc2nccc3c(Nc4ncccc4-c4ccncn4)c(C)ccc23)cc1C(F)(F)F [Example 19, 6-methyl-N^1-(4-(methyloxy)-3-(trifluoromethyl)phenyl)-N^5-(3-(4-pyrimidinyl)-2-pyridinyl)-1,5-isoquinolinediamine] | ≤ 250 | ≤ 500 | –
CNc1ncc2cc(-c3c(C)ccc4c(Nc5cccc(C(F)(F)F)c5)nccc34)ccc2n1 [Example 24, N-methyl-6-(6-methyl-1-((3-(trifluoromethyl)phenyl)amino)-5-isoquinolinyl)-2-quinazolinamine] | ≤ 250 | ≤ 500 | –
CNc1ncc2cc(-c3c(C)ccc4c(Nc5cccc(OC(C)C)c5)nccc34)ccc2n1 [Example 25, N-methyl-6-(6-methyl-1-((3-((1-methylethyl)oxy)phenyl)amino)-5-isoquinolinyl)-2-quinazolinamine] | ≤ 250 | ≤ 500 | –
CNc1ncc2cc(-c3c(C)ccc4c(Nc5cccc(C(C)C)c5)nccc34)ccc2n1 [Example 26, N-methyl-6-(6-methyl-1-((3-(1-methylethyl)phenyl)amino)-5-isoquinolinyl)-2-quinazolinamine] | ≤ 250 | ≤ 500 | –

Structure (SMILES) | IC50 [1] [nM] | IC50 ([2]; threshold list) [nM] | IC50 ([2]; threshold lists) [nM]
CNc1ncc2cc(-c3c(C)ccc4c(Nc5cc(C(C)(C)C)on5)nccc34)ccc2n1 [Example 27, 6-(1-((5-(1,1-dimethylethyl)-3-isoxazolyl)amino)-6-methyl-5-isoquinolinyl)-N-methyl-2-quinazolinamine] | ≤ 250 | ≤ 500 | –
CNc1cc(-c2cccnc2Nc2c(C)ccc3c(Nc4cc(C(C)(C)C)nn4C)nccc23)ncn1 [Example 69, N^1-(3-tert-butyl-1-methyl-1H-pyrazol-5-yl)-6-methyl-N^5-(3-(6-(methylamino)pyrimidin-4-yl)pyridin-2-yl)isoquinoline-1,5-diamine] | – | – | ≤ 5000
CNc1ncc2cc(-c3c(C)ccc4c(Nc5cccc(OC(F)(F)F)c5)nc(C)nc34)ccc2n1 [Example 86, 6-(2,7-dimethyl-4-(3-(trifluoromethoxy)phenylamino)quinazolin-8-yl)-N-methylquinazolin-2-amine] | – | – | ≤ 5000
CNc1ncc2cc(-c3c(C)ccc4c(Nc5ccc(C#N)cc5)nccc34)ccc2n1 [Example 103] | – | ≤ 500 | ≤ 1000
CNc1ncc2cc(-c3c(C)ccc4c(Nc5cccnc5)nn(C)c34)ccc2n1 [Example 163] | – | ≤ 500 | ≤ 1000
CNc1ncc2cc(-c3c(C)ccc4c(Nc5cccc(C#N)c5)nn(C)c34)ccc2n1 [Example 196] | – | ≤ 500 | –
Cc1ccc(C(F)(F)F)cc1Nc1nccc2c(Nc3ncccc3-c3ccncn3)c(C)ccc12 [Example 344, 6-methyl-N1-(2-methyl-5-(trifluoromethyl)phenyl)-N5-(3-(pyrimidin-4-yl)pyridin-2-yl)isoquinoline-1,5-diamine] | ≤ 250 | – | –
CNc1cc(-c2cccnc2F)ncn1 [Example 345, 6-(2-fluoropyridin-3-yl)-N-methylpyrimidin-4-amine] | – | ≤ 500 | ≤ 1000
CNc1cc(-c2cccnc2Nc2c(C)ccc3c(Nc4cc(C(F)(F)F)ccc4C)nccc23)ncn1 [Example 349] | – | – | ≤ 5000
CNc1ncc2cc(-c3c(C)ccc4c(Nc5cccc(C(F)(F)F)c5)nccc34)c(=O)n(C)c2n1 [Example 354, 8-methyl-6-(6-methyl-1-(3-(trifluoromethyl)phenylamino)isoquinolin-5-yl)-2-(methylamino)pyrido[2,3-d]pyrimidin-7(8H)-one] | – | – | ≤ 5000
CNc1ncc2cc(-c3cccc4c(Nc5cccc(C(F)(F)F)c5)nccc34)c(=O)n(C)c2n1 [Example 360] | ≤ 250 | – | –
Cc1ccc2c(Nc3cccc(C(F)(F)F)c3)nccc2c1-c1ccc2nc(N)ncc2c1 [Example 361, 6-(6-methyl-1-(3-(trifluoromethyl)phenylamino)isoquinolin-5-yl)quinazolin-2-amine] | ≤ 250 | – | –
CNc1ncc2cc(-c3c(C)ccc4c(Nc5cncc(OC(C)C)c5)nccc34)ccc2n1 [Example 378, 6-(1-(5-isopropoxypyridin-3-ylamino)-6-methylisoquinolin-5-yl)-N-methylquinazolin-2-amine] | ≤ 1000 | – | –
CNc1nccc(-c2cccnc2Oc2c(C)ccc3c(Nc4cccc(OC(F)(F)F)c4)nccc23)n1 [Example 413, 6-methyl-5-(3-(2-(methylamino)pyrimidin-4-yl)pyridin-2-yloxy)-N-(3-(trifluoromethoxy)phenyl)isoquinolin-1-amine] | – | – | ≤ 5000
CNc1ncc2cc(-c3c(C)ccc4c(Nc5cccc(C(C)(C)O)c5)nncc34)ccc2n1 [Example 433, 2-(3-(6-methyl-5-(2-(methylamino)quinazolin-6-yl)phthalazin-1-ylamino)phenyl)propan-2-ol] | – | – | ≤ 5000
CNc1ncc2cc(-c3c(C)ccc4c(Nc5ccc6c(c5)NC(=O)CC6(C)C)nnc(C)c34)ccc2n1 [Example 438] | – | ≤ 500 | –
